Consider six compounds from US6740639B1, “Inclusion complees of a high potent opioid peptide, pharmaceutical compositions and method of treatment” (Council of Scientific & Industrial Research, priority 2000, dated 2004).

One series concerns leucine amino peptidase. The conditions noted are these: enzyme hydrolysis with leucine amino peptidase; cited from earlier work.
For series [1] the following is noted: cited from earlier work; for analgesic effect: systemic route of administration; for analgesic potency compared with morphine: systemic administration.
Another series deals with μ and δ receptors. The conditions noted are these: cited from earlier work.
The next series concerns rats. Briefly: 30 days toxicity study by subcutaneous route in rat. The series is classed as in vivo. The conditions noted are these: s.c. once daily 30 days, 7.5, 15.0 and 30.0 mg/kg. How it is done: (§1) 30 days toxicity study or L-Tyrosyl-D-alanyl-glycyl-N-methylphenylalanyl-glycyl-isopropylamide in rat and rhesus monkey by subcutaneous route.
(§2) Compound L-Tyrosyl-D-alanyl-glycyl-N-methylphenytalanyt-glycyl-isopropylamide dissolved in saline was given daily by subcutaneous route to groups of rats (n=10 males and 10 females in each group) and rhesus monkeys ([…] and 2 females in each group) once daily for 30 consecutive days. The dose levels used in rats were 0.0, 7.5, 15.0 and 30.0 mg/kg and in monkeys 0.0, 3.75, 7.5 and 15 mg/kg. Dose levels were selected on the basis of rat ED of 3.0 mg/kg and extrapolation thereof in the monkey.
(§3) A careful general inspection of the animals was done at least once each day Cage-side observations included changes in skin and fur, eyes and mucous membranes, general activity and behavior and also general signs of abnormal functioning of respiratory, circulators, autonomic and central nervous system and somatomotor activity. Body weights (weekly in rats initial and day 30 in monkeys), daily food (rat and monkeys) and water (rat only) consumption and parameters of hematology urinalysis and blood biochemistry of the animals was recorded All the animals were sacrificed at the end of 30 days. Necropsy was performed and histophathological examination of all the important organs and tissues were done. […]

Series [2] is described as follows: CNS and cardiovascular effects (background). The note with it: in vivo.
A further series can be described thus: LD50 in mice. The conditions noted are these: mouse, in vivo, ip. As to the method: It is evident from above table that the ED50 of beta CD complex is about one third than the compound L-Tyrosyl-D-alanyl-glycyl-N-methylphenylalanyl-glycyl-isopropylamide by subcutaneous route and was one half by oral route. The LD50 of the compound L-Tyrosyl-D-alanyl-glycyl-N-methylphenylalanyl-glycyl-isopropylamide is 1000 mg/Kg i.p., and that of the complex is >10,000 mg/kg P. O. in mice.

Series [3] is described as follows: Chronic and subacute toxicity studies (background). The conditions noted are these: in vivo.
The nature of series [4]: Addiction liabilities and tolerance (background). Type of series: in vivo. The conditions noted are these: compared to morphine.
Another series has as its system rhesus monkeys. The series can be described thus: 30 days toxicity study by subcutaneous route in rhesus monkey. The conditions noted are these: s.c. once daily 30 days, 3.75, 7.5 and 15 mg/kg. Type of series: in vivo. How it is done:
as §1, §2, §3

Non-standard residues stand in square brackets, D forms with d. No end group written: not given here. Phe(4-NO2) = N[C@@H](Cc1ccc([N+](=O)[O-])cc1)C(=O)O

For Leu-enkephalin, in the series on leucine amino peptidase, the half life is on record as 45 min.
Consider “Tyr-D-Ala-Gly-Phe-MeMet-NH2 [met-kephamid]”, for which the analgesic effect result in series [1] was “strong analgesic effect”. Also, in the series with μ and δ receptors, the opioid receptor selectivity entry was “essentially non-elective for μ and δ receptors”.
For `CC(C)NC(=O)CNC(=O)[C@H](Cc1ccccc1)N(C)C(=O)CNC(=O)[C@@H](C)NC(=O)[C@@H](N)Cc1ccc(O)cc1` [L-Tyrosyl-D-alanyl-glycyl-N-methylphenylalanyl-glycyl-isopropylamide], the 30-day toxicity finding result in the series on rats is “safe”. In addition, in [2], the “CNS effects like sedation and respiratory depression” value is listed as “virtually devoid of any major CNS effects”; the cardiovascular effects result was “virtually devoid of any significant cardiovascular effects”. Further, in the series “LD50 in mice”, the LD50 (as a rule, the dose expected to kill half of the subjects tested) came to 1000 mg/kg. For the same compound, the “chronic and subacute toxicity finding” value in series [3] is “safe and did not produce any noticeable toxic side effects”. Moreover, in series [4], the “tolerance and addiction properties” value was “significantly reduced tolerance and addiction properties as compared to morphine”. Also, in the series on rhesus monkeys, the 30-day toxicity finding result is “safe”.
Regarding “Tyr-Arg-Gly-Phe(pNO2)-Pro-NH2 (YRG[Phe(4-NO2)]P-NH2; N-terminus assumed; SMILES N=C(N)NCCC[C@H](NC(=O)[C@@H](N)Cc1ccc(O)cc1)C(=O)NCC(=O)N[C@@H](Cc1ccc([N+](=O)[O-])cc1)C(=O)N1CCC[C@H]1C(N)=O) [BW-443C, enkephalin analog]”, the “analgesic potency compared with morphine” value in [1] is “more potent analgesic than morphine”.
With Y[dM]GFP-NH2, in [1], the “analgesic potency compared with morphine” value is “more potent analgesic than morphine”.
Turning to Tyr-D-Ala-Gly,-Met(o)-01 [FK-33-824], the analgesic effect result in series [1] is given as “strong analgesic effect”. The opioid receptor selectivity entry with μ and δ receptors is on record as “only slight preference for p-receptors”.
